Earlier results, collected in patent US20110200683A1, “Hydrogen peroxide solution producing first aid substance, packaging, and treatment” (Piper Medical, Inc, priority 2010, published 2011).

How the values were obtained:
[1] = in water
[2] = temperatures above 50° C

solubility sufficient to create a hydrogen peroxide concentration [1]: ≥ 3%
stability [2]: relatively stable
Compound: NC(N)=O.OO [percarbamide]
